The target in the experiment is T1, human Nav 1.7 channels stably expressed in HEK 293 cells (Homo sapiens, UniProt Q15858).
T1 construct: expressed in transfected cells; host or cells: HEK 293
The experiment can be described thus: IonWorks Quattro automated patch-clamp, inactivated state block of Nav 1.7. The experiment is classed as cell-based. The note with it: double-pulse protocol, HEK 293 cells held at -100 mV, read-out: potency for the Nav 1.7 sodium ion channel (IC50, IonWorks). The procedure:
IonWorks® Experimental Procedure
Compounds were tested on human Nav 1.7 and Nav 1.5 channels stably expressed in HEK 293 cells. Sodium current measurements on IonWorks Quattro: An automated patch-clamp assay on the IonWorks Quattro platform (Molecular Devices) was used to measure state-dependent inhibition of human Nav 1.7 and Nav 1.5 channels. Cells were sealed on a planar substrate using the Population Patch Plate (PPC) technology. Electrical access was obtained using both nystatin and amphotericin. A double-pulse protocol was used for the determination of IC50 values for inactivated state block. Nav 1.7 and Nav 1.5 expressing cells were voltage clamped at −100 mV and −110 mV, respectively. A depolarizing prepulse to −10 mV (Nav 1.7) or −30 mV (Nav 1.5) for 1000 ms followed by a 10 ms repolarization to ˜100 mV (Nav1.7) or −110 mV (Nav 1.5) was given to generate fractional channel inactivation of ˜50%, followed by a 10 ms test pulse to −10 mV (Nav 1.7) or −30 mV (Nav 1.5) to measure peak current in control conditions and after compound addition. The following recording solutions were used (mM). External: 150 NaCl, 2 CaCl2, 5 KCl, 1 Mg Cl2, 10 HEPES, 12 Dextrose; internal: 120 CsF, 30 CsCl, 10 EGTA, 5 HEPES, 5 NaF, 2 MgCl2.
For all electrophysiology experiments, offline analysis was used to determine percent inhibition as a function of drug concentration. IC50 values were determined by fitting to the Hill equation.
The various compounds in Examples 1 through 4 and Tables 1 through 3 exemplified above were assayed for activity and selectivity using the foregoing IonWorks® technique. The results are reported in the following paragraph in a format expressing the identification of the compound with reference Example and compound (e.g. Ex 1-9 is Example 1, compound 9) followed by the observed potency in nM and the ratio of Nav1.7 potency: Nav1.5 potency as described here. Thus, Ex1-9: 1.7=65/ratio=641 identifies compound Example 1, compound 9 as having 65 nM potency for the Nav 1.7 sodium ion channel (as measured by IonWorks®) and a ratio of 641 Nav 1.7: Nav 1.5 potency, determined by IonWorks® measurement.
On the technique in general: Patch clamp records ionic current or voltage across a cell membrane.

Each structure is given as a SMILES string.

T1 sequence (Q15858 whole entry): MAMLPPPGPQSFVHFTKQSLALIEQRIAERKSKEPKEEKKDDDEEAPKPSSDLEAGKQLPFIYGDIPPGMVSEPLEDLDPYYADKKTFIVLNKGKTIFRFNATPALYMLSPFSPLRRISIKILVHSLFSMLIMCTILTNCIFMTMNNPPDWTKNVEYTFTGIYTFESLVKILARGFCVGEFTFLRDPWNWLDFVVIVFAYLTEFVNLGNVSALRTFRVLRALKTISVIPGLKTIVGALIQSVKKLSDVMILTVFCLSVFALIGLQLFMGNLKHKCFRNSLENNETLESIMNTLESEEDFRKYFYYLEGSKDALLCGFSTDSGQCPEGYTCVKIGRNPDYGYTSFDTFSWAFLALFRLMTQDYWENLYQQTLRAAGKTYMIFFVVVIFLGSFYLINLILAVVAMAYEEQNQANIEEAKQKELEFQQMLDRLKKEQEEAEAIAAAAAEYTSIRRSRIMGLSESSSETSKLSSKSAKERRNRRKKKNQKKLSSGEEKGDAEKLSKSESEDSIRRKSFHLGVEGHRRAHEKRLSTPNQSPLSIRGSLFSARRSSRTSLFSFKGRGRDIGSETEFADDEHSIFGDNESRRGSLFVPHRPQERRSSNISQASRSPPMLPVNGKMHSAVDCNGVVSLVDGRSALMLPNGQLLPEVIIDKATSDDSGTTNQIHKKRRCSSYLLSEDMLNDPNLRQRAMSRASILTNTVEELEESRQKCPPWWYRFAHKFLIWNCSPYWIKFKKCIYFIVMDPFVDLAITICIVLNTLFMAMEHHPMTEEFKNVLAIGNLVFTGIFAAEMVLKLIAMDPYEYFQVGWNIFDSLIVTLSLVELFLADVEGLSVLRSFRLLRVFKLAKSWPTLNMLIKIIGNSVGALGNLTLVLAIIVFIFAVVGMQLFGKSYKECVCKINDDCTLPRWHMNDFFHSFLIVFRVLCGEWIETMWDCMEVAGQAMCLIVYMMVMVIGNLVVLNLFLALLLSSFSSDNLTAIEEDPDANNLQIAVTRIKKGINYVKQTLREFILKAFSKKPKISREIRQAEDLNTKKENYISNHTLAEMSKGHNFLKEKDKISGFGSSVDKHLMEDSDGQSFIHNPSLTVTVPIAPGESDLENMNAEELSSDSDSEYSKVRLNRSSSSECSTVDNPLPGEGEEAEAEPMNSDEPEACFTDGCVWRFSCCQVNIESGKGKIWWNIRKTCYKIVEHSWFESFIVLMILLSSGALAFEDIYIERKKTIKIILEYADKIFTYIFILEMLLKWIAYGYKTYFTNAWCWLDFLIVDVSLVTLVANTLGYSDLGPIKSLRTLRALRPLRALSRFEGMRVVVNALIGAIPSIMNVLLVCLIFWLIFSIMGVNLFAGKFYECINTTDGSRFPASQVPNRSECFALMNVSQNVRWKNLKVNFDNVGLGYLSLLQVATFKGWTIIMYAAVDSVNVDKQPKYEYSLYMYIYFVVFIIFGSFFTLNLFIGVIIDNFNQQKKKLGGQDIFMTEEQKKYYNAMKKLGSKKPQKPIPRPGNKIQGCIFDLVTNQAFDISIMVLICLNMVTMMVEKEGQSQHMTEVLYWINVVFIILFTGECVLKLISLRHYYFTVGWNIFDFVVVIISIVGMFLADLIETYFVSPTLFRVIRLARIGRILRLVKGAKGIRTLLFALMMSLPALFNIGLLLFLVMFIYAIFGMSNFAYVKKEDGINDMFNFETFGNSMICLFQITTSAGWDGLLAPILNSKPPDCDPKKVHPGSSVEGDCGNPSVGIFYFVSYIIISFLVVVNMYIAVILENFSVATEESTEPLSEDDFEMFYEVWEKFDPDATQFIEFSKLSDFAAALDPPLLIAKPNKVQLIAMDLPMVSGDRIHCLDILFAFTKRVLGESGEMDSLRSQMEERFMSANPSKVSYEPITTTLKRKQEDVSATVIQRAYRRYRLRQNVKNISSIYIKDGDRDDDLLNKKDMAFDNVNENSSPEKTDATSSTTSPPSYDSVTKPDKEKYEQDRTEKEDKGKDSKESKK

Regarding `N#Cc1cc(S(=O)(=O)Nc2ncns2)c(F)cc1NCCCCN[C@@H]1CCNC1` [Ex 16-45, 5-cyano-2-fluoro-4-({4-[(3R)-pyrrolidin-3-yl-amino]butyl}amino)-N-1,2,4-thiadiazol-5-ylbenzene-sulfonamide], the IC50 (as a rule, the concentration at which inhibition is half-maximal) was determined as 16 nM. For `O=S(=O)(Nc1ncns1)c1cc(Cl)c(NCCCCN2C[C@H]3CCCN[C@H]3C2)cc1F` [Ex 16-31, 5-chloro-2-fluoro-4-({4-[(4aR,7aR)-octahydro-6H-pyrrolo[3,4-b]pyridin-6-yl]-butyl}amino)-N-1,2,4-thiadiazol-5-ylbenzene-sulfonamide] the value was 12 nM. For `N#Cc1cc(S(=O)(=O)Nc2ncc(F)s2)c(F)cc1NCCCCN[C@@H]1CCNC1` [Ex 16-40, 5-cyano-2-fluoro-N-(5-fluoro-1,3-thiazol-2-yl)-4-({4-[(3R)-pyrrolidin-3-yl-amino]butyl}amino)benzene-sulfonamide] the value was 29 nM; for `O=S(=O)(Nc1nccs1)c1cc(Cl)c(NCC(F)(F)CCNC[C@H]2CCCN2)cc1F` [Ex 11-12, 5-chloro-4-[(2,2-difluoro-4-{[(2R)-pyrrolidin-2-ylmethyl]amino}butyl)amino]-2-fluoro-N-1,3-thiazol-2-ylbenzenesulfonamide], 49 nM. The figure for `NCC(NCCCCNc1cc(F)c(S(=O)(=O)Nc2nccs2)cc1Cl)c1ccccc1` (stereo not drawn) [Ex 1-32, 4-({4-[(2-amino-1-phenylethyl)amino]butyl}amino)-5-chloro-2-fluoro-N-1,3-thiazol-2-ylbenzenesulfonamide] is 16 nM; for `O=S(=O)(Nc1ncc(F)s1)c1ccc(NCCCCNC[C@@H]2CCCN2)c(Cl)c1` [Ex 7-13, 3-chloro-N-(5-fluoro-1,3-thiazol-2-yl)-4-[(4-{[(2S)-pyrrolidin-2-ylmethyl]amino}butyl)amino]benzenesulfonamide] it is 16 nM; for `NC1CN(CCCCNc2cc(F)c(S(=O)(=O)Nc3ncns3)cc2Cl)C1` [Ex 16-38, 4-{[4-(3-aminoazetidin-1-yl)-butyl]amino}-5-chloro-2-fluoro-N-1,2,4-thiadiazol-5-yl-benzenesulfonamide] it is 30 nM. On to `O=S(=O)(Nc1nccs1)c1cc(Cl)c(NCCCCN[C@H]2CN[C@H](c3ccccc3)C2)cc1F` [Ex 1-8, 5-chloro-2-fluoro-4-[(4-{[(3R,5S)-5-phenylpyrrolidin-3-yl]amino}butyl)amino]-N-1,3-thiazol-2-ylbenzenesulfonamide], for which the IC50 came to 11 nM. For the molecule `N[C@H]1CCN(CCCCNc2cc(F)c(S(=O)(=O)Nc3nccs3)cc2Cl)C1` [Ex 1-11, 4-({4-[(3S)-3-aminopyrrolidin-1-yl]butyl}amino)-5-chloro-2-fluoro-N-1,3-thiazol-2-ylbenzenesulfonamide], the IC50 stood at 19 nM. On to `O=S(=O)(Nc1nccs1)c1cc(Cl)c(NCC(F)(F)CCNC[C@@H]2CCCN2)cc1F` [Ex 11-11, 5-chloro-4-[(2,2-difluoro-4-{[(2S)-pyrrolidin-2-ylmethyl]amino}butyl)amino]-2-fluoro-N-1,3-thiazol-2-ylbenzenesulfonamide], for which the IC50 was 49 nM. For `NC1CCCN(CCCCNc2cc(F)c(S(=O)(=O)Nc3nccs3)cc2Cl)CC1` (stereo not drawn) [Ex 1-43, 4-{[4-(4-aminoazepan-1-yl)butyl]amino}-5-chloro-2-fluoro-N-1,3-thiazol-2-ylbenzenesulfonamide], the IC50 amounted to 31 nM. The figure for `O=S(=O)(Nc1nccs1)c1cc(Cl)c(NCCCCNC2C[C@@H]3CN[C@H]2C3)cc1F` (stereo partly drawn) [Ex 16-42, 4-({4-[(1S,4R)-2-azabicyclo[2.2.1]hept-6-yl-amino]butyl}amino)-5-chloro-2-fluoro-N-1,3-thiazol-2-ylbenzene-sulfonamide] is 44 nM. The figure for `O=S(=O)(Nc1nccs1)c1cc(Cl)c(NCCCCNCC2NCc3ccccc32)cc1F` (single isomer, unassigned) [Ex 2-4 Enantiomer B, (S or R)-5-chloro-2-fluoro-4-((4-((isoindolin-1-ylmethyl)amino)butyl)amino)-N-(thiazol-2-yl)benzenesulfonamide] is 21 nM; for `NC[C@H]1CCN1CCCCNc1cc(F)c(S(=O)(=O)Nc2ncc(F)s2)cc1Cl` [Ex 16-10, 4-({4-[(2R)-2-(aminomethyl)azetidin-1-yl]-butyl}amino)-5-chloro-2-fluoro-N-(5-fluoro-1,3-thiazol-2-yl)-benzene-sulfonamide] it is 19 nM. With `O=S(=O)(Nc1nccs1)c1cc(Cl)c(NCCCCNC[C@H]2NCC[C@@H]2c2ccccc2)cc1F` [Ex 8-6, 5-chloro-2-fluoro-4-{[4-({[(2S,3R)-3-phenylpyrrolidin-2-yl]-methyl}amino)butyl]amino}-N-1,3-thiazol-2-ylbenzenesulfonamide], the IC50 turned out to be 21 nM.

Turning to `O=S(=O)(Nc1nccs1)c1cc(Cl)c(NCCCCN2CCC23CCCNC3)cc1F` (stereo not drawn) [Ex 1-40, 5-chloro-4-{[4-(1,6-diazaspiro[3.5]non-1-yl)-butyl]amino}-2-fluoro-N-1,3-thiazol-2-yl-benzenesulfonamide], the IC50 came to 110 nM. The figure for `O=S(=O)(Nc1nccs1)c1cc(Cl)c(NCCCCNC[C@H]2CC(F)(F)CN2)cc1F` [Ex 8-15, 5-chloro-4-{[4-({[(2R)-4,4-difluoropyrrolidin-2-yl]-methyl}amino)butyl]amino}-2-fluoro-N-1,3-thiazol-2-yl-benzenesulfonamide] is 66 nM; for `NCC1CCCN(CCCCNc2cc(F)c(S(=O)(=O)Nc3nccs3)cc2Cl)C1` (stereo not drawn) [Ex 1-46, 4-({4-[3-(aminomethyl)piperidin-1-yl]butyl}amino)-5-chloro-2-fluoro-N-1,3-thiazol-2-ylbenzenesulfonamide] it is 30 nM. For `NC1CN(CCCCNc2cc(F)c(S(=O)(=O)Nc3nccs3)cc2Cl)C1` [Ex 1-44, 4-{[4-(3-aminoazetidin-1-yl)butyl]amino}-5-chloro-2-fluoro-N-1,3-thiazol-2-ylbenzenesulfonamide] the value was 29 nM; for `O=S(=O)(Nc1nccs1)c1cc(Cl)c(NCCCCN2CC3CCCNC3C2)cc1F` (stereo not drawn) [Ex 1-13, 5-chloro-2-fluoro-4-{[4-(octahydro-6H-pyrrolo[3,4-b]pyridin-6-yl)butyl]amino}-N-1,3-thiazol-2-ylbenzenesulfonamide], 16 nM. The figure for `NC1C2CN(CCCCNc3cc(F)c(S(=O)(=O)Nc4nccs4)cc3Cl)CC12` (stereo not drawn) [Ex 1-42, 4-{[4-(6-amino-3-azabicyclo[3.1.0]hex-3-yl)butyl]amino}-5-chloro-2-fluoro-N-1,3-thiazol-2-ylbenzenesulfonamide] is 80 nM; for `CN[C@@H]1CCN(CCCCNc2cc(F)c(S(=O)(=O)Nc3ncc(F)s3)cc2Cl)C1` [Ex 16-54, 5-chloro-2-fluoro-N-(5-fluoro-1,3-thiazol-2-yl)-4-({4-[(3R)-3-(methylamino)-pyrrolidin-1-yl]butyl}-amino)-benzenesulfonamide] it is 13 nM. Consider `O=S(=O)(Nc1nccs1)c1cc(Cl)c(NCCCCN2CCCC23CCNC3)cc1F` (stereo not drawn) [Ex 1-12, 5-chloro-4-{[4-(1,7-diazaspiro[4.4]non-1-yl)butyl]amino}-2-fluoro-N-1,3-thiazol-2-ylbenzenesulfonamide], for which the IC50 was determined as 66 nM.

Turning to `O=S(=O)(Nc1nccs1)c1cc(Cl)c(NCCCCNCC2Cc3ccccc3CN2)cc1F` (single isomer, unassigned) [Ex 1-19, (S or R)-5-chloro-2-fluoro-4-({4-[(1,2,3,4-tetrahydroisoquinolin-3-ylmethyl)amino]butyl}amino)-N-1,3-thiazol-2-ylbenzenesulfonamide], the IC50 came to 10 nM.

Turning to `O=S(=O)(Nc1nccs1)c1cc(Cl)c(NCCCCNC[C@@H]2CC[C@H](c3ccccc3)N2)cc1F` [Ex 8-3, 5-chloro-2-fluoro-4-{[4-({[(2S,5R)-5-phenylpyrrolidin-2-yl]methyl}-amino)butyl]-amino}-N-1,3-thiazol-2-yl-benzenesulfonamide], the IC50 was determined as 13 nM. The figure for `Cc1cc(S(=O)(=O)Nc2ncc(F)s2)c(F)cc1NCCCCN[C@@H]1CCNC1` [Ex 16-43, 2-fluoro-N-(5-fluoro-1,3-thiazol-2-yl)-5-methyl-4-({4-[(3R)-pyrrolidin-3-ylamino]-butyl}amino)benzene-sulfonamide] is 11 nM; for `O=S(=O)(Nc1nccs1)c1cc(Cl)c(NCCCCNC[C@@H]2C[C@H](c3ccccc3)CN2)cc1F` [Ex 8-13, 5-chloro-2-fluoro-4-{[4-({[(2S,4R)-4-phenylpyrrolidin-2-yl]-methyl}amino)-butyl]amino}-N-1,3-thiazol-2-yl-benzenesulfonamide] it is 16 nM.

(Values after patent US10968210B2, “Diamino-alkylamino-linked arylsulfonamide compounds with selective activity in voltage-gated sodium channels” (Merck Sharp & Dohme Corp., priority 2016, dated 2021).)
